Reference: patent US20070048356A1, “Antimicrobial treatment of nonwoven materials for infection control” (priority 2005, published 2007)

Assays:
[1] = tested on: Staphylococcus aureus (ATCC #27660); assay: Rapid Germicidal Time Kill on treated gloves; format: cell-based; details: for log reduction of organisms: nitrile gloves, versus applied organisms estimated from latex control
From the text: In another aspect, to assess the efficacy of how rapidly the applied antimicrobial agents kill, we employed a direct contact, rapid germicidal test, developed by Kimberly-Clark Corporation. This test better simulates real world working situations in which microbes are transferred from a substrate to glove through direct contacts of short duration. Also this test permits us to assess whether contact with the surface of the glove at one position will quickly kill microbes, whereas the solution-based testing of the ASTM E 2149-01 protocol tends to provide multiple opportunities to contact and kill the microbes, which less realistic in practice.
We applied an inoculum of a known amount of microbes to the antimicrobial-treated surface of a glove. After about 3-6 minutes, we assessed the number of microbes that remained on the surface of the treated glove. […] The concentration of organisms on the surface is given at an initial Zero Time point and at 3, 5, and 30 minute points.
To test the antimicrobial efficacy of a polyhexamethylene biguanide, we treated nitrile examination gloves according to ASTM protocol 04-123409-106 “Rapid Germicidal Time Kill.” In brief, about 50 μL of an overnight culture of Staphylococcus aureus (ATCC #27660, 5×10^8CFU/mL) was applied to the glove material. After a total contact time of about 6 minutes the glove fabric was placed into a neutralizing buffer. Surviving organisms were extracted and diluted in Letheen broth. Aliquots were spread plated on Tryptic Soy Agar plates. Plates were incubated for 48 hours at 35° C. Following incubation the surviving organisms were counted and the colony forming units (CFU) were recorded. The reduction (log10) in surviving organisms from test material versus control fabric was calculated: Log10 CFU/swatch Control−Log10 CFU/swatch Test Article=Log10 Reduction.

[2] = tested on: broad spectrum of microorganism (gram positive and gram negative bacteria, and fungi: mold and yeast); details: within 15 minutes; baseline data of Tables 12-15
Method: The experimental procedure is based on ASTM E 2149-01. In brief, the test is performed by first adding a 2″×2″ sample of treated material to a flask containing 50 mL of a buffered-saline solution. The flask is then inoculated with the challenge organism (6.5-7 log10 total) and shaken through mechanical means for a designated period of time. At specified time points, a sample of the solution is then removed and plated. Lastly, the plate is incubated, examined for microbial growth, and the number of colony forming units counted. The log reduction in organisms is measured by comparing the growth on the experimental plate to control plates with no antimicrobial treatment.

[3] = Table 25, nitrile glove samples, Inoculum: 8.08

Polyhexamethylene biguanide [PHMB] was tested, and the “Result (Log10 Reduction, test material versus control)” value ([1]; Table 23, microtextured nitrile glove, total contact time about 6 minutes) was >4.7 log10, the “Result (Log10 Reduction versus PFE control)” value ([1]; Table 24, latex glove samples, total contact time about 6 minutes) was >5.83 log10 and the “Result (log reduction of test glove compared to control glove)” value [1, 3] was >1.85 log. For the same substance, the “Result (log reduction of test glove compared to control glove), class” value [1, 3] was “NR (No Reduction = less than 0.5 log reduction of test glove compared to control glove.)”, the “log reduction of Staphylococcus aureus ATCC 27660” value ([1]; microtextured nitrile glove, machine applied at 0.03 g/glove) was “greater than four” and the “log reduction of organisms” value ([1]; hand sprayed with no heat) was “greater than one”. The “log reduction of organisms” value ([1]; machine sprayed under heated conditions) was “greater than 5 log” and the “log10 reduction in colony forming units (CFU)” value [2] was ≥ 3 log10.
